What all share (test): NCI-60 cell line screen, 48 h
The test system of assay [1] is A549.
Assay [2] relates to COLO 205.
Assay [3] concerns HCT-116.
Assay [4] relates to HCT-15.
For assay [5], the system named is HL-60.
Assay [6] relates to IGROV-1.
Assay [7] concerns LOX IMVI.
The test system of assay [8] is Malme-3M.
In assay [9] the test system is NCI-H23.
Assay [10] deals with OVCAR-3.
Assay [11] relates to OVCAR-8.
Assay [12] concerns RPMI-8226.
In assay [13] the test system is SF-295.
In assay [14] the test system is SNB-19.
Assay [15] has as its system UACC-257.
In assay [16] the test system is UO-31.
The subject of assay [17] is HOP-92.
Assay [18] has as its system KM12.
Assay [19] has as its system SK-OV-3.
Assay [20] relates to CAKI-1.

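Five compound concentrations were applied to cells in 96-well plates for 48 hours; endpoints were derived by simple linear interpolation of the resulting dose-response curve. At the GI50, growth is halved.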 The source made the active and inactive calls. Rule as the data show it: active = GI50 up to about 1.1 µM and inactive = higher. Where only a bound is given, the exact number is not on record here.

Consider `CC(C)C1CN(C(=O)OCc2ccccc2)C2N1C(=O)C2(C)OCc1ccccc1` (stereo unspecified), for which the GI50 is 29.2 µM (inactive) in [1]; 19.1 µM (inactive) in [2]; 37.6 µM (inactive) in [3]; 44.8 µM in assay [4]; 22.6 µM (inactive) in assay [5]; 35.9 µM (inactive) in assay [6]. The GI50 was 27.2 µM (inactive) in assay [7]; 31.8 µM (inactive) in [8]; 24.5 µM (inactive) in assay [9]; > 100 µM (inactive) in [10]; 45.4 µM (inactive) in assay [11]; 21.4 µM (inactive) in assay [12]. Also, the GI50 in assay [13] was 34.8 µM (inactive); in assay [14], 46.7 µM (inactive); in assay [15], 28.2 µM (inactive); in assay [16], 20.3 µM (inactive).

Take `COc1ccccc1N1C(Cl)C(=O)C1c1c[nH]c2ccccc12` (stereo unspecified): the GI50 in assay [1], in assay [2], in assay [3], in assay [5], in assay [17] and in assay [6] was > 100 µM (inactive) throughout. Moreover, the GI50 in assay [18], in assay [9], in [10], in assay [11], in [12] and in assay [13] was > 100 µM (inactive) throughout. The GI50 in [19] is > 100 µM (inactive); in [14] it was 26.7 µM (inactive); in assay [15] it was > 100 µM (inactive); in assay [16] it was > 100 µM (inactive).

With `Cc1c2[nH]c3ccc(Br)cc3c2c(C)c2nccc(O)c12`, the GI50 in assay [1] is 10.2 µM (inactive); in assay [20] it was 13.8 µM (inactive); in [2], 12.5 µM (inactive); in assay [3], 13.8 µM (inactive); in [4], 15.1 µM; in assay [5], 12.1 µM (inactive). The GI50 in assay [18] was 12.4 µM (inactive); in [7] it was 15.5 µM (inactive); in [8], 13 µM (inactive); in [9] it was 16 µM (inactive); in [10], 14.6 µM (inactive); in assay [11], 20.7 µM (inactive). Besides, the GI50 in assay [12] was 14.3 µM (inactive); in assay [13] it was 14.5 µM (inactive); in assay [14] it was 14.5 µM (inactive); in assay [15], 16.4 µM (inactive); in assay [16], 11.1 µM (inactive).

As to `C=C(CCCO)[C@@H]1CC[C@@](C)(O)[C@H]1C`, the GI50 in [1] is > 100 µM (inactive); in assay [20], > 100 µM (inactive); in assay [2], > 100 µM (inactive); in assay [3], > 100 µM (inactive); in [4] it was > 100 µM; in assay [6] it was > 100 µM (inactive). Further, the GI50 in assay [18], in assay [8], in [9], in assay [10], in [11] and in assay [12] was > 100 µM (inactive) in each case. For the same compound, the GI50 in [13] was > 100 µM (inactive); in assay [19], 0.885 µM (active); in [14], > 100 µM (inactive); in assay [15], > 100 µM (inactive); in assay [16], > 100 µM (inactive).

Take `CN(c1ccccc1)c1c(-c2ccccc2)c(=O)oc2c1ccc1occc12`: the GI50 in assay [1] was > 100 µM (inactive); in assay [20] it was 36.2 µM (inactive); in assay [2], > 100 µM (inactive); in [3], > 100 µM (inactive); in assay [4] it was > 88.5 µM; in assay [5], 39.7 µM (inactive). In addition, the GI50 in assay [6], in assay [18], in assay [7], in [8], in assay [9] and in [10] was > 100 µM (inactive) each time. The GI50 in assay [11], in [13], in assay [19], in assay [14], in assay [15] and in [16] was > 100 µM (inactive) in each case.

With `CC(C)(CCCCC(C)(C)NC1=NCCO1)NC1=NCCO1`, the GI50 in assay [1] was > 10 µM (inactive); in assay [20], > 10 µM (inactive); in [2], > 10 µM (inactive); in assay [3] it was > 10 µM (inactive); in assay [4], > 10 µM; in [5], > 10 µM (inactive). Further, the GI50 in assay [6], in assay [18], in assay [7], in [8], in assay [9] and in assay [10] was > 10 µM (inactive) in each case. Also, the GI50 in assay [11], in assay [12], in assay [13], in [19], in assay [14] and in assay [16] was > 10 µM (inactive) in each case.

Take `O=C1C(=CNC(=S)c2ccccc2)C(=O)c2ccccc21`: the GI50 was 67.5 µM (inactive) in assay [1]; 71.4 µM (inactive) in [20]; 69.7 µM (inactive) in [2]; 46.7 µM (inactive) in [3]; 32.1 µM in [4]; 4.28 µM (inactive) in assay [5]. For the same compound, the GI50 in assay [17] is 40.7 µM (inactive); in assay [6], 29.4 µM (inactive); in assay [18], 62.1 µM (inactive); in [7], 43.1 µM (inactive); in assay [9] it was 51.5 µM (inactive); in [10], 76 µM (inactive). The GI50 in assay [11] was 54.6 µM (inactive); in assay [12], 25.2 µM (inactive); in [13] it was 91 µM (inactive); in assay [19], 21.7 µM (inactive); in [14] it was 93.8 µM (inactive); in assay [15] it was 55.1 µM (inactive). Also, the GI50 in assay [16] was 25.8 µM (inactive).

For `COc1cc(/C=C2\C(=O)N(C(=O)Cc3ccccc3)N=C2C)cc(OC)c1OC`, the GI50 in [1] was > 100 µM (inactive); in [20], > 100 µM (inactive); in assay [2], > 100 µM (inactive); in [3], > 100 µM (inactive); in assay [4], > 100 µM; in assay [5] it was > 100 µM (inactive). Moreover, the GI50 in assay [18], in assay [7], in assay [8], in assay [9], in assay [10] and in assay [11] was > 100 µM (inactive) each time. The GI50 in assay [12], in [13], in assay [14], in [15] and in assay [16] was > 100 µM (inactive) in each case.

For the compound `O=C(CCC(=O)Nc1ccc(Cl)c(Cl)c1)CC(=O)c1ccc(Br)cc1`, the GI50 in assay [1] is > 100 µM (inactive); in [20] it was > 100 µM (inactive); in assay [2], > 100 µM (inactive); in assay [3], > 100 µM (inactive); in assay [4] it was 40.5 µM; in [17], > 100 µM (inactive). Besides, the GI50 in [6], in [18], in assay [7], in assay [8], in assay [9] and in assay [10] was > 100 µM (inactive) each time. Also, the GI50 is > 100 µM (inactive) in [11]; > 100 µM (inactive) in assay [12]; > 100 µM (inactive) in assay [19]; > 100 µM (inactive) in [14]; 49.4 µM (inactive) in assay [15]; > 100 µM (inactive) in [16].

In the case of `CC(=O)NC1CC(C(C)(C)NC(C)=O)CC=C1C` (stereo unspecified), the GI50 in assay [1] is > 100 µM (inactive); in assay [2], > 100 µM (inactive); in assay [3] it was > 100 µM (inactive); in [4], > 100 µM; in [5] it was > 100 µM (inactive); in assay [17], > 100 µM (inactive). For the same compound, the GI50 in [6], in [18], in [7], in assay [9], in assay [10] and in [11] was > 100 µM (inactive) in each case. Moreover, the GI50 in [13], in [19], in assay [14], in [15] and in assay [16] was > 100 µM (inactive) in each case.

In the case of `O=C1N[C@@H]([C@H](CCCCCO)OC(=O)c2ccccc2)CO1`, the GI50 in assay [1] was > 100 µM (inactive); in assay [20] it was > 100 µM (inactive); in assay [2], > 10 µM (inactive); in assay [3], > 100 µM (inactive); in [4], > 100 µM; in [5], > 100 µM (inactive). For the same compound, the GI50 in [17], in [6], in [18], in [7], in assay [10] and in assay [11] was > 100 µM (inactive) in each case. Further, the GI50 in [12], in assay [13], in [19], in assay [14], in [15] and in [16] was > 100 µM (inactive) in each case.

Values taken from ChEMBL document CHEMBL1201862, “PubChem BioAssay data set” (2004).
